Measurements: publication PMC12724200 (mSphere, 2025)
Converted amounts (≈) assume the structure as drawn. Read-outs that look alike come from different tables or passages of the source.

How the values were obtained:
M. tuberculosis H37Rv = test: microbe, parasite or virus in culture; type: cell-based, Mycobacterium tuberculosis
M. bovis = test: microbe, parasite or virus in culture; type: cell-based, Mycobacterium bovis
M. bovis BCG Tokyo 172 [1] = test: microbe, parasite or virus in culture; type: cell-based, Mycobacterium bovis BCG
OCT313-resistant BCG = test: microbe, parasite or virus in culture; type: cell-based, Mycobacterium bovis BCG
M. avium 104 = test: microbe, parasite or virus in culture; type: cell-based, Mycobacterium avium
M. smegmatis mc^2 155 = test: microbe, parasite or virus in culture; type: cell-based, Mycobacterium smegmatis
Staphylococcus aureus = test: microbe, parasite or virus in culture; type: cell-based
Escherichia coli DH5α = test: microbe, parasite or virus in culture; type: cell-based
THP-1 = settings: human
A549 = settings: human
MRC-5 = settings: human
[2] = molecular target: recombinant wild-type M. bovis BCG PTA (Mycobacterium bovis, UniProt A0A679LAX5); test: biochemical; type: biochemical
recombinant wild-type M. bovis BCG PTA, sequence (A0A679LAX5 1-690): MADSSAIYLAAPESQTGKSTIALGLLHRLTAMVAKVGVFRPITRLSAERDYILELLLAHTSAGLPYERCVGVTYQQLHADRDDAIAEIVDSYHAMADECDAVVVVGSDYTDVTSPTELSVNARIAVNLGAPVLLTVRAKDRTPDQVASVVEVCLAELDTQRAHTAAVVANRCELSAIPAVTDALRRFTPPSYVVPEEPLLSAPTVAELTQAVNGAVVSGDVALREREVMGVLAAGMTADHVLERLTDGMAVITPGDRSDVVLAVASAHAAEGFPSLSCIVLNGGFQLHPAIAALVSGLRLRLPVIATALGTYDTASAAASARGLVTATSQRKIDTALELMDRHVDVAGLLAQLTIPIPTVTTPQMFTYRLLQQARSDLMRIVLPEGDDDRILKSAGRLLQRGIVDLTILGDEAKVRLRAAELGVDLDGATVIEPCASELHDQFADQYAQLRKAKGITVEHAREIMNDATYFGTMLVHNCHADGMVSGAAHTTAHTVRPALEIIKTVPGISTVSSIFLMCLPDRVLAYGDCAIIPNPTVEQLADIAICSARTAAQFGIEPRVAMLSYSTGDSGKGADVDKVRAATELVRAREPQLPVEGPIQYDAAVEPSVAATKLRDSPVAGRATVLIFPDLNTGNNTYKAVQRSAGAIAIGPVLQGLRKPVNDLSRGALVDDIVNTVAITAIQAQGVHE

M. bovis BCG Tokyo 172 [3] = type: cell-based, Mycobacterium bovis BCG
L. mesenteroides PTA = L. mesenteroides PTA (Leuconostoc mesenteroides, UniProt Q03W64); type: biochemical
L. mesenteroides PTA, sequence (Q03W64 1-326): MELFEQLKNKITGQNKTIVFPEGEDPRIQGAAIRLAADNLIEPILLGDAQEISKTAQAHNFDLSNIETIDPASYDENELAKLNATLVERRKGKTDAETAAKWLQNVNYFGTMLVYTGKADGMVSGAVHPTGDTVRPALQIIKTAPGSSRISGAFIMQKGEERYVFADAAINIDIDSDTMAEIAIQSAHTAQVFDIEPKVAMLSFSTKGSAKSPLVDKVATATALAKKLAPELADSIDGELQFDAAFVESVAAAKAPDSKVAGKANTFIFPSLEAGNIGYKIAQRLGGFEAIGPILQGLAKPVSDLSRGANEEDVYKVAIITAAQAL

[4] = test system: OCT313-resistant BCG strains OCTR_3 and OCTR_4; type: cell-based, Mycobacterium bovis BCG
[5] = Mycobacterium tuberculosis, H37RV
[6] = Mycobacterium tuberculosis, H37RV, 336 h
[7] = Mycobacterium tuberculosis variant bovis, 336 h
[8] = Mycobacterium tuberculosis variant bovis BCG, BCG, 336 h
[9] = Mycobacterium avium, 104, 168 h
[10] = Mycolicibacterium smegmatis, MC^2155, 72 h

## CC[C@@H](CO)NCCN[C@@H](CC)CO [EB, ethambutol]
M. tuberculosis H37Rv; [5]
  MIC: 2.5 µg/mL (≈ 12.2 µM)
M. tuberculosis H37Rv; [6]
  MIC: 2.5 µg/mL (≈ 12.2 µM)
M. bovis; [7]
  MIC: 0.78 µg/mL (≈ 3.82 µM)
M. bovis BCG Tokyo 172 [1]; [8]
  MIC: 3 µg/mL (≈ 14.7 µM)
OCT313-resistant BCG; [8]
  MIC: 3 µg/mL (≈ 14.7 µM)
M. avium 104; [9]
  MIC: 1.6 µg/mL (≈ 7.83 µM)
M. smegmatis mc^2 155; [10]
  MIC: 12.5 µg/mL (≈ 61.2 µM)
Staphylococcus aureus; Staphylococcus aureus
  MIC: > 100 µg/mL
Escherichia coli DH5α; Escherichia coli
  MIC: > 100 µg/mL
THP-1
  85% survival conc.: 500 µg/mL
  LC50/MIC: 916
A549
  85% survival conc.: 1,000 μg/mL
  LC50/MIC: 1,434
MRC-5
  85% survival conc.: 250 µg/mL
  LC50/MIC: 111

## CC(=O)N[C@@H]1[C@@H](O)[C@H](O)[C@@H](CO)O[C@@H]1O [GlcNAc, N-acetyl-D-glucosamine]
M. tuberculosis H37Rv
  MIC: >1,000 μg/mL
M. bovis
  MIC: >1,000 μg/mL
M. bovis BCG Tokyo 172 [1]
  MIC: >1,000 μg/mL
OCT313-resistant BCG
  MIC: >1,000 μg/mL
M. avium 104
  MIC: >1,000 μg/mL
M. smegmatis mc^2 155
  MIC: >1,000 μg/mL
Staphylococcus aureus
  MIC: >1,000 μg/mL
Escherichia coli DH5α
  MIC: >1,000 μg/mL
[2]
  Inhibition of PTA enzyme activity (in words): not sufficient to inhibit enzyme activity

## NNC(=O)c1ccncc1 [INH, isoniazid]
M. tuberculosis H37Rv; [5]
  MIC: 0.04 µg/mL (≈ 0.292 µM)
M. tuberculosis H37Rv; [6]
  MIC: 0.04 µg/mL (≈ 0.292 µM)
M. bovis; [7]
  MIC: 0.04 µg/mL (≈ 0.292 µM)
M. bovis BCG Tokyo 172 [1]; [8]
  MIC: 0.04 µg/mL (≈ 0.292 µM)
OCT313-resistant BCG; [8]
  MIC: 0.04 µg/mL (≈ 0.292 µM)
M. avium 104; [9]
  MIC: 1.56 µg/mL (≈ 11.4 µM)
M. smegmatis mc^2 155; [10]
  MIC: 3.13 µg/mL (≈ 22.8 µM)
Staphylococcus aureus; Staphylococcus aureus
  MIC: > 100 µg/mL
Escherichia coli DH5α; Escherichia coli
  MIC: > 100 µg/mL
M. bovis BCG Tokyo 172 [3]
  Antibacterial activity in Wayne dormancy model: showed reduced activity
THP-1
  85% survival conc.: 100 µg/mL
  LC50/MIC: 53,613
A549
  85% survival conc.: 1,000 μg/mL
  LC50/MIC: 77,277
MRC-5
  85% survival conc.: 250 µg/mL
  LC50/MIC: 7,325

## Cc1ncc([N+](=O)[O-])n1CCO [MTZ, metronidazole]
M. bovis BCG Tokyo 172 [3]
  Antibacterial activity in Wayne dormancy model: showed antibacterial activity

## CCN1C(=O)C=CC1=O [NEM, N-ethylmaleimide]
[2]
  IC50: 14.5 µM
L. mesenteroides PTA
  IC50: 50.9 µM

## CC(=O)N[C@@H]1[C@@H](O)[C@H](O)[C@@H](CO)O[C@H]1SC(=S)N(C)C [OCT313, 2-acetamido-2-deoxy-β-D-glucopyranosyl N,N-dimethyldithiocarbamate]
M. tuberculosis H37Rv; [5]
  MIC: 25 µg/mL (≈ 77.1 µM)
M. tuberculosis H37Rv; [6]
  MIC: 25 µg/mL (≈ 77.1 µM)
M. bovis; [7]
  MIC: 31.3 µg/mL (≈ 96.5 µM)
M. bovis BCG Tokyo 172 [1]; [8]
  MIC: 12.5 µg/mL (≈ 38.5 µM)
OCT313-resistant BCG; Mycobacterium tuberculosis variant bovis BCG, BCG
  MIC: > 100 µg/mL
OCT313-resistant BCG; [8]
  MIC: > 200 µg/mL
M. avium 104; [9]
  MIC: > 100 µg/mL
M. smegmatis mc^2 155; [10]
  MIC: > 100 µg/mL
Staphylococcus aureus; Staphylococcus aureus
  MIC: > 100 µg/mL
Escherichia coli DH5α; Escherichia coli
  MIC: > 100 µg/mL
[2]
  IC50: 2.79 µM
  Inhibition pattern (Lineweaver-Burk plots): mixed inhibition
L. mesenteroides PTA
  IC50: > 1000 µM
M. bovis BCG Tokyo 172 [3]
  Antibacterial activity in Wayne dormancy model: susceptible to OCT313 in a dose-dependent manner
THP-1
  85% survival conc.: 1,250 μg/mL
  Change of 50% lethal concentration (LD50) by sugar derivatization: 27 fold
  LC50/MIC: 356
A549
  85% survival conc.: 500 µg/mL
  Change of 50% lethal concentration (LD50) by sugar derivatization: 196 fold
  LC50/MIC: 188
MRC-5
  85% survival conc.: 2,500 μg/mL
  Change of 50% lethal concentration (LD50) by sugar derivatization: 550 fold
  LC50/MIC: 242

## CO[C@H]1/C=C/O[C@@]2(C)Oc3c(C)c(O)c4c(O)c(c(/C=N/N5CCN(C)CC5)c(O)c4c3C2=O)NC(=O)/C(C)=C\C=C\[C@H](C)[C@H](O)[C@@H](C)[C@@H](O)[C@@H](C)[C@H](OC(C)=O)[C@@H]1C [RFP, rifampicin]
M. tuberculosis H37Rv; [5]
  MIC: 0.004 µg/mL (≈ 0.00486 µM)
M. tuberculosis H37Rv; [6]
  MIC: 0.004 µg/mL (≈ 0.00486 µM)
M. bovis; [7]
  MIC: 0.016 µg/mL (≈ 0.0194 µM)
M. bovis BCG Tokyo 172 [1]; [8]
  MIC: 0.01 µg/mL (≈ 0.0122 µM)
OCT313-resistant BCG; [8]
  MIC: 0.01 µg/mL (≈ 0.0122 µM)
M. avium 104; [9]
  MIC: 0.25 µg/mL (≈ 0.304 µM)
M. smegmatis mc^2 155; [10]
  MIC: 1.56 µg/mL (≈ 1.9 µM)
Staphylococcus aureus; Staphylococcus aureus
  MIC: 0.02 µg/mL (≈ 0.0243 µM)
Escherichia coli DH5α; Escherichia coli
  MIC: 12.5 µg/mL (≈ 15.2 µM)
THP-1
  85% survival conc.: 10 µg/mL
  LC50/MIC: 16,256
A549
  85% survival conc.: 10 µg/mL
  LC50/MIC: 44,510
MRC-5
  85% survival conc.: 10 µg/mL
  LC50/MIC: 16,250

## [H]/N=C(/N)N[C@H]1[C@H](O)[C@@H](O)[C@H](O[C@@H]2O[C@@H](C)[C@](O)(C=O)[C@H]2O[C@@H]2O[C@@H](CO)[C@H](O)[C@@H](O)[C@@H]2NC)[C@@H](N/C(N)=N\[H])[C@@H]1O [SM, streptomycin]
M. tuberculosis H37Rv; [5]
  MIC: 0.4 µg/mL (≈ 0.688 µM)
M. tuberculosis H37Rv; [6]
  MIC: 0.39 µg/mL (≈ 0.671 µM)
M. bovis; [7]
  MIC: 0.2 µg/mL (≈ 0.344 µM)
M. bovis BCG Tokyo 172 [1]; [8]
  MIC: 0.2 µg/mL (≈ 0.344 µM)
OCT313-resistant BCG; [8]
  MIC: 0.2 µg/mL (≈ 0.344 µM)
M. avium 104; [9]
  MIC: 3.13 µg/mL (≈ 5.38 µM)
M. smegmatis mc^2 155; [10]
  MIC: 0.39 µg/mL (≈ 0.671 µM)
Staphylococcus aureus; Staphylococcus aureus
  MIC: 6.25 µg/mL (≈ 10.7 µM)
Escherichia coli DH5α; Escherichia coli
  MIC: 25 µg/mL (≈ 43 µM)
THP-1
  85% survival conc.: 100 µg/mL
  LC50/MIC: 17,908
A549
  85% survival conc.: 5,000 μg/mL
  LC50/MIC: 31,350
MRC-5
  85% survival conc.: 1,000 μg/mL
  LC50/MIC: 4,175

## Dimethyldithiocarbamate [DMDC]
M. tuberculosis H37Rv
  MIC: 1.56 µg/mL
M. bovis
  MIC: 3.13 µg/mL
M. bovis BCG Tokyo 172 [1]
  MIC: 3.13 µg/mL
OCT313-resistant BCG
  MIC: 12.5 µg/mL
M. smegmatis mc^2 155
  MIC: >100 µg/mL
Staphylococcus aureus
  MIC: 25 µg/mL
Escherichia coli DH5α
  MIC: 200 µg/mL
[2]
  Inhibition of PTA enzyme activity (in words): did not inhibit PTA
[4]
  Antibacterial activity in Wayne dormancy model: similar
